According to ChEMBL document CHEMBL1141327, “Planktocyclin, a cyclooctapeptide protease inhibitor produced by the freshwater cyanobacterium Planktothrix rubescens” (J Nat Prod, 2007):
Peptide text beside a SMILES is read from it.

Assays:
[1] = Inhibition of porcine trypsin; set-up: species or system Sus scrofa
Cathepsin B = Cathepsin B (Bos taurus, UniProt P07688); test: Inhibition of bovine Cathepsin B
[2] = Inhibition of bovine alpha chymotrypsin; set-up: species or system Bos taurus
Caspase-8 = Caspase-8 (Homo sapiens, UniProt Q14790); test: Inhibition of human recombinant caspase 8 expressed in Escherichia coli
Sequence of Caspase-8 (Q14790 217-374 limits assumed): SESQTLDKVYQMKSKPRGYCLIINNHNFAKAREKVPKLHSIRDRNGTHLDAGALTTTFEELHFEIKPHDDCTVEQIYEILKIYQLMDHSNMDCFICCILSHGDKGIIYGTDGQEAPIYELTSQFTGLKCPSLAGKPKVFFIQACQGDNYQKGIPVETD
Sequence of Caspase-8 (Q14790 385-479 limits assumed): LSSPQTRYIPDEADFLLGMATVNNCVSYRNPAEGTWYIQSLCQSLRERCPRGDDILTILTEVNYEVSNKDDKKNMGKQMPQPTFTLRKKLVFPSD

IC50 [1]: 0.104 µM | IC50 (Cathepsin B): > 500 µM | IC50 [2]: 10 µM | IC50 (Caspase-8): 93 µM
SMILES: CSCC[C@@H]1NC(=O)[C@H](C(C)C)NC(=O)[C@H](CC(C)C)NC(=O)CNC(=O)[C@@H]2CCCN2C(=O)[C@H](C(C)C)NC(=O)CNC(=O)[C@H](Cc2ccccc2)NC1=O [PLANKTOCYCLIN] (cyclo(FGVPGLVM))
